In patent US20260041660A1 (priority 2020, published 2026):

How the values were obtained:
MAPK and JAK = test: TPA pro-apoptotic effects via immune-regulatory kinases; format: cell-based; details: through interactions with MAPK and JAK
Text: (§1) The instant disclosure, in conjunction with ongoing pilot studies by the inventors, illustrates a wide range of pro-immune and anti-inflammatory effects of TPA that will potently mediate reduction and/or prevention of ARDS conditions and symptoms, as well as other pathogenic conditions and symptoms associated with severe COVID-19 disease. […] Exemplary pilot studies have shown that TPA compounds will effectively treat and prevent lymphocytopenia, by virtue that these compounds promote full range of pro-immune effects relating to activation, proliferation and survival of lymphocytes. […] Neutrophils are evidently “hijacked” and reprogrammed by SARS-COV-2 proteins (and other emergent pro-inflammatory factors that emerge in the course of COVID-19 disease development), leading to profound dysregulation of neutrophil immune and inflammatory activities. […]

PKC = test: Inventors' studies: TPA effect on PKC; format: biochemical
Text: (§2) More complex effects of TPA on MAPK pathways involve TPA regulation of immune cell differentiation and apoptosis.

[1] = format: in vivo, C57Bl/6 mouse
MAPK = test: Inventors' studies: TPA effect on MAPK hyper-stimulation; format: cell-based; details: reduced MAPK activation and phosphorylation activity
Text: as §2

[2] = system: peripheral blood lymphocytes (predominantly T-cells); test: Pilot studies: effect of TPA on peripheral blood lymphocytes; format: cell-based
Text: In addition to minimizing hyper-inflammatory activities of macrophages and neutrophils, TPA compositions and methods of the invention mediate protection of lymphocytes (prolongation of lifespan), and also directly stimulate lymphocyte proliferation and differentiation. […] This activity will protect and expand lymphocyte numbers, which in turn will mediate potent anti-viral effects.
as §1

IL-6 = details: in vitro and in vivo; Stat3, Akt, ERK1/2 pathways; cited from earlier work
[3] = system: murine peritoneal macrophages; details: via suppression of ERK1/2 signaling; cited from earlier work
[4] = polar organic solvents and water; cited from earlier work
HIN1 = details: reducing infiltration of inflammatory cells, inhibiting pro-inflammatory cytokines; cited from earlier work
SARS-COV-2 [5] = details: recent in vitro studies; cited from earlier work
SARS-COV-2 [6] = details: after 48 h of infection with SARS-COV-2; cited from earlier work
COVID-19 = details: human, in vivo; cited from earlier work

With CCCCCCCCCCCCCC(=O)O[C@@H]1[C@H](C)[C@@]2(O)[C@@H](C=C(CO)C[C@]3(O)C(=O)C(C)=C[C@@H]23)[C@@H]2C(C)(C)[C@]12OC(C)=O (stereo in doubt) [TPA, 12-O-tetradecanoylphorbol-13-acetate] the apoptotic effects (MAPK and JAK) was “pro-apoptotic effects”, the “effect on PKC” value (PKC) was “not only activates, but stabilizes PKC” and the “TNFα content in BALF samples” value ([1]; 48 hrs) was “reduction of TNFα content”. For the same compound, the “protein extravasation in BALF samples” value ([1]; 48 hrs) was “reduction of protein extravasation in BALF samples”, the “ROS generation of lavaged neutrophils” value ([1]; after 48 hours) was “significant reduction in ROS generation” and the “BALF WBC ROS production” value ([1]; mouse, in vivo) was “significantly lower”. For the same compound, the “LPS-induced EBD extravasation” value ([1]; mouse, in vivo) was “suppression of LPS-induced EBD extravasation”, the “hyper-elevation of IL-6, IL-10, TNFα, MIP2 and other pro-inflammatory cytokines” value ([1]; mouse, in vivo) was “block or reduce hyper-elevation” and the “monocyte/macrophage and neutrophil counts” value ([1]; mouse, in vivo) was “reduction in monocyte/macrophage and neutrophil counts”. The “neutrophil and RBC into pulmonary interstitial spaces and alveolar airspaces” value ([1]; mouse, in vivo) was “marked reduction in neutrophil and RBC”, the “presence of neutrophils in BALF” value ([1]; mouse, in vivo) was “significantly reduced” and the “swelling of the alveolar walls” value ([1]; mouse, in vivo) was “reduced swelling of the alveolar walls”. For the same compound, the “histopathologic changes of the lung” value ([1]; mouse, in vivo, iv) was “markedly suppressed”, the MAPK hyper-stimulation (MAPK) was “clinically beneficial reduction in MAPK hyper-stimulation” and the “mitogenic effect on peripheral blood lymphocytes” value [2] was “direct, clinically effective mitogenic effect”.
In the case of C=C1CC[C@@H]2[C@](C)(CO)[C@H](O)CC[C@@]2(C)[C@@H]1C/C=C1/C(=O)OC[C@H]1O [Andrographolide], the “IL-6 production and IL-6 hyper-inflammatory signaling” value (IL-6) is listed as “inhibits IL-6 production and suppresses IL-6 hyper-inflammatory signaling in a dose-dependent manner” and the “production of TNF-α and interleukin-12” value [3] is listed as “inhibits the production of TNF-α and interleukin-12”.
For CC1=C[C@H]2[C@@]3(O)[C@H](C)[C@@H](O)[C@]4(O)[C@H]([C@@H]3C=C(CO)C[C@]2(O)C1=O)C4(C)C [Phorbol], the solubility [4] is given as “well soluble in most polar organic solvents and in water”.
For O=C1CCC(N2C(=O)c3ccccc3C2=O)C(=O)N1 (stereo not shown) [Thalidomide], the “treatment of infected mice” value (HIN1) is given as “effective in treating HIN1-infected mice”.
For CCN(CCO)CCCC(C)Nc1ccnc2cc(Cl)ccc12 (stereo not shown) [hydroxychloroquine], the “viral load/titer of SARS-COV-2” value (SARS-COV-2 [5]) is given as “effectively reduces viral load/titer of SARS-COV-2”.
In the case of Ivermectin, the “reduce viral RNA” value (SARS-COV-2 [6]) is given as “up to 5,000 fold”.
In the case of “TCZ: recombinant human anti-IL-6 monoclonal antibody that binds soluble and membrane-bound IL-6 receptors”, the “fever and other ARDS symptoms” value (COVID-19) is given as “reduces fever and other ARDS symptoms”, the “patients with opacity lung lesion on CT scans absorbed” value (COVID-19) is given as 90.5% and the “patients with peripheral lymphocyte levels returned to normal” value (COVID-19) is given as 52.6%. The “treated subjects showing improved oxygenation” value (COVID-19) was 75.0%.
